Data as given in ChEMBL document CHEMBL1201862, “PubChem BioAssay data set” (2004).
Active and inactive are the calls of the source.

How the values were obtained:
[1] = target: Glyceraldehyde-3-phosphate dehydrogenase (Homo sapiens, UniProt P04406)
Bcl-2-related protein A1 [2] = target: T1, Bcl-2-related protein A1 (Mus musculus, UniProt Q07440); assay: Bfl-1 inhibitors blocking BH3 peptide binding, confirmation, biochemical, TR-FRET, mouse Bfl-1 (AID 621);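 also: TR-FRET binding of GST-Bfl-1 to FITC-labelled Bid peptide via terbium antibody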
T1 sequence (Q07440 whole entry): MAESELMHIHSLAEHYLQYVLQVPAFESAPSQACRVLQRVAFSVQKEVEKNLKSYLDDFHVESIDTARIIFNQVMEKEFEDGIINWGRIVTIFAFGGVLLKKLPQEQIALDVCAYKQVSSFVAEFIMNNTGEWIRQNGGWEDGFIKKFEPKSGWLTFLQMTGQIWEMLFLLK

Bcl-2-related protein A1 [3] = target: T1, Bcl-2-related protein A1; assay: Bfl-1 binding inhibitors, SAR follow-up, biochemical, fluorescence polarization (AID 1070)
[4] = target: Neuropeptide Y receptor type 2 (Homo sapiens, UniProt P49146); assay: Fluorescence-based counterscreen for agonists of NPY-Y1: cell-based high-throughput dose response assay for agonists of NPY-Y2.; assay type: functional
[5] = target: Neuropeptide Y receptor type 1 (Homo sapiens, UniProt P25929); assay: Fluorescence-based dose response cell-based high-throughput screening assay for agonists of NPY-Y1. [Related pubchem assays: 1697 (Screening assay (NPY-Y1 agonists).), 1359 (Screening assay (NPY-Y2 potentiators or agonists).), 1304 (Screening assay (NPY-Y1 potentiators or agonists).), 1704 (Screening assay (CNGC inhibitors).), 1791 (Summary AID.)]; assay type: functional
Streptokinase A = target: T2, Streptokinase A (Streptococcus pyogenes serotype M1, UniProt P10520); assay: S. pyogenes streptokinase expression inhibitors, potency, dose response, plasminogen activation absorbance, OD405 (AID 1914); assay type: functional, Streptococcus pyogenes M1 GAS;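 also: secreted streptokinase activity via plasminogen activation per viability signal from cell pellet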
T2 sequence (P10520 whole entry): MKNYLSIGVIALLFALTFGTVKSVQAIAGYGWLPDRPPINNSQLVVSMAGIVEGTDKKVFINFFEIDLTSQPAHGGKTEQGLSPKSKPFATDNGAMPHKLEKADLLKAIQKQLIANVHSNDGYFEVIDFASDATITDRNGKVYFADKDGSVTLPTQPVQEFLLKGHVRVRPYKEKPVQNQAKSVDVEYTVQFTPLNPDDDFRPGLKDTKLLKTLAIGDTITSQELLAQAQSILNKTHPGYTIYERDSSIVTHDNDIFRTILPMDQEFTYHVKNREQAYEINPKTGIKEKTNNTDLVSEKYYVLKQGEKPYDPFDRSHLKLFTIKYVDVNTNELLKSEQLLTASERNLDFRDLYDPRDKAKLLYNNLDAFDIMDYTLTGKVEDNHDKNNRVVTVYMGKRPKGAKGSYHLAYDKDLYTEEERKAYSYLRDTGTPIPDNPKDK

[6] = target: T3, Sentrin-specific protease 6 (Homo sapiens, UniProt Q9GZR1); assay type: functional
T3 sequence (Q9GZR1 whole entry): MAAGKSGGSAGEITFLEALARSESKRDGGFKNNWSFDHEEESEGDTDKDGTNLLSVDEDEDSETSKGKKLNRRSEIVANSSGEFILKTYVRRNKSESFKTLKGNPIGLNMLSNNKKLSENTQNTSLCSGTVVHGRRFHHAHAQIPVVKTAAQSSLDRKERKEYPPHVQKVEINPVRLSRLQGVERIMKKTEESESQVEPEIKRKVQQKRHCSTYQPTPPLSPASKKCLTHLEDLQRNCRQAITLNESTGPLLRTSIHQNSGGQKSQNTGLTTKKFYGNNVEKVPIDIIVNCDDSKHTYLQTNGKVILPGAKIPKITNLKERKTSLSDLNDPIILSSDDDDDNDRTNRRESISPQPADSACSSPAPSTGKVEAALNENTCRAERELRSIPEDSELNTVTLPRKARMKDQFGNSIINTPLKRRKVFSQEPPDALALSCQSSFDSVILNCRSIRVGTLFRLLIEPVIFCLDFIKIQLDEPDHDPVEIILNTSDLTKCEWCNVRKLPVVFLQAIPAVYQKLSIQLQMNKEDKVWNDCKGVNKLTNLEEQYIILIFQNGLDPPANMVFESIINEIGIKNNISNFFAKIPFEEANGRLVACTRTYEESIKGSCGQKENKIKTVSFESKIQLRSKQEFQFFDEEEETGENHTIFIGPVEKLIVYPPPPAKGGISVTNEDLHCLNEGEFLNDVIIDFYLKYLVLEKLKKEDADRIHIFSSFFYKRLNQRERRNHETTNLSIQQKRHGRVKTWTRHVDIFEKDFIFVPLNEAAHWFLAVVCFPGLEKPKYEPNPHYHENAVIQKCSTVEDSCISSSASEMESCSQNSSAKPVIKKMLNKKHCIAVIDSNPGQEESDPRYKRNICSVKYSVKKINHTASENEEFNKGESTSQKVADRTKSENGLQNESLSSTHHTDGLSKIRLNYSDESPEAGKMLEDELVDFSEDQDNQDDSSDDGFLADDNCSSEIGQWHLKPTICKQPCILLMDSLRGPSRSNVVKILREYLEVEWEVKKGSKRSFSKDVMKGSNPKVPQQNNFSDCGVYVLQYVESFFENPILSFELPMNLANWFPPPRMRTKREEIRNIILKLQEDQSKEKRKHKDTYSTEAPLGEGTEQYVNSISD

[7] = target: T4, Sentrin-specific protease 7 (Homo sapiens, UniProt Q9BQF6); assay type: functional;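 also: Luminescence-based dose-response confirmation of ultra-high-throughput screening hits, measuring inhibition of SENP7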
T4 sequence (Q9BQF6 whole entry): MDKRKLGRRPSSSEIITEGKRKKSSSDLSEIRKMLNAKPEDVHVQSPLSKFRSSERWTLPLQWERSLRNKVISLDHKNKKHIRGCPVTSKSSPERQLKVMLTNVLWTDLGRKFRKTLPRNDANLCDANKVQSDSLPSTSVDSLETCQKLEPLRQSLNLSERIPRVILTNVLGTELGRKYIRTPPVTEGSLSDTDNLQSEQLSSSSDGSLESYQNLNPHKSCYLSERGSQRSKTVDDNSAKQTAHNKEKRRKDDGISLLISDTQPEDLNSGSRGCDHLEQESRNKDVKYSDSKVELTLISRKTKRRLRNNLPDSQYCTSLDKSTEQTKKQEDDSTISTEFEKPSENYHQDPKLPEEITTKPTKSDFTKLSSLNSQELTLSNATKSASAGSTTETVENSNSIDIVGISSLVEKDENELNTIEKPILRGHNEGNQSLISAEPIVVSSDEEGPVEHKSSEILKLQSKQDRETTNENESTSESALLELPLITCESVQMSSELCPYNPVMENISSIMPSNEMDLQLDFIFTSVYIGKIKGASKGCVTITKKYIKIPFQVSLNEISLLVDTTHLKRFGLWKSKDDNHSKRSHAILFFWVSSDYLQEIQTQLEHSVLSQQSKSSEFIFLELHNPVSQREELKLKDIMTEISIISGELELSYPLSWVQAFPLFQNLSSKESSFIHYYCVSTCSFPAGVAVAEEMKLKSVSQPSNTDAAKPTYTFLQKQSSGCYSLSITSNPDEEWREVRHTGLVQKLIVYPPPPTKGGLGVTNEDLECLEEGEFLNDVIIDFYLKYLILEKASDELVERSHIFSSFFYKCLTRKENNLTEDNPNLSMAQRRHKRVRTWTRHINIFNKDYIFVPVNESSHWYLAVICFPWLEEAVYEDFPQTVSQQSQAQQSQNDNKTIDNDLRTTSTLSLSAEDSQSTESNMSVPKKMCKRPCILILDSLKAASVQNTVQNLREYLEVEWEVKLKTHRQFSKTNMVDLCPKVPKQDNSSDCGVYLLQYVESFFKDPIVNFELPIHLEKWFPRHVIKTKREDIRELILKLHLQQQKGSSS

Caspase-3 [8] = target: T5, Caspase-3 (Homo sapiens, UniProt P42574); assay type: functional
T5 sequence (P42574 whole entry): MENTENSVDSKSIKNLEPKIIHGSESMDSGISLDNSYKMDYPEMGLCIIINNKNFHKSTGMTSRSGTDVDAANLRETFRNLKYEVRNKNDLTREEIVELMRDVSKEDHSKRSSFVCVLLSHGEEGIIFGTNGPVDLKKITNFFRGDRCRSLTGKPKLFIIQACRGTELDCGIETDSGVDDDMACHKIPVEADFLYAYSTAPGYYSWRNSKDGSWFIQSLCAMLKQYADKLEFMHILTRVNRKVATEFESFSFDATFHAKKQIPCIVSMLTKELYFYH

[9] = target: Photoreceptor-specific nuclear receptor (Homo sapiens, UniProt Q9Y5X4); assay: NR2E3 inverse agonists, dose response, biochemical, TR-FRET (AID 463256); assay type: functional
[10] = growth suppression of beta-catenin-knockout colon cells, dose response, cell-based, HCT116, human colon tumor (AID 1045); assay type: functional;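 also: HCT116 colon tumor cells with beta catenin knocked out; cells exposed to compound for 60 hours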
[11] = target: T6, Sentrin-specific protease 8 (Homo sapiens, UniProt Q96LD8); assay: SENP8 protease inhibitors, SAR follow-up, biochemical, luminescence (AID 504501); assay type: functional
T6 sequence (Q96LD8 whole entry): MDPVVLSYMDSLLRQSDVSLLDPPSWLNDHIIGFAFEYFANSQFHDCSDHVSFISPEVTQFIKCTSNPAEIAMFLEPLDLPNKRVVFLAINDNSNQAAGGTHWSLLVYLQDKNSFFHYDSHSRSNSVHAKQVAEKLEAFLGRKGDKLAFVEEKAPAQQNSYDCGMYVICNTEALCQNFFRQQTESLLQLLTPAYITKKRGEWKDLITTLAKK

Caspase-3 [12] = target: T5, Caspase-3; assay: SAR Analysis of small molecule inhibitors of Sentrin-specific proteases (SENPs) using a Caspase-3 Selectivity assay. [Related pubchem assays (depositor defined):AID2540, AID2599, AID434973, AID489001]; assay type: functional
[13] = target: T3, Sentrin-specific protease 6; assay: SAR Analysis of small molecule inhibitors of Sentrin-specific protease 6 (SENP6) using a Luminescent assay. [Related pubchem assays (depositor defined):AID2582, AID2599]; assay type: functional
[14] = target: T6, Sentrin-specific protease 8; assay type: functional
[15] = target: T4, Sentrin-specific protease 7; assay: SENP7 protease inhibitors, SAR follow-up, biochemical, luminescence (AID 504497); assay type: functional
[16] = target: Peroxisome proliferator-activated receptor gamma/Nuclear receptor corepressor 2 (Homo sapiens, UniProt P37231+Q9Y618); assay: Counterscreen for NR2E3 inverse agonists: TR-FRET-based biochemical high throughput dose response assay to identify inverse agonists of the interaction between peroxisome proliferator-activated receptor gamma (PPARg) and nuclear receptor co-repressor 2 (NCOR2).; assay type: functional
[17] = growth suppression of PTEN-null colon cells, dose response, cell-based, HCT116 PTEN knockout (AID 1047); assay type: functional;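 also: HCT116 colon tumor cells with PTEN knocked out; cells exposed to compound for 60 hours before readout; potency for loss of cell viability measured by luminescence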
H4 = assay: Luminescence Cell-Based Dose Response HTS to Identify Activators of 5'UTR Stem-Loop Driven Prion Protein mRNA Translation in H4 Neuroglioblastoma Cells. [Related pubchem assays: 1829 (Project Summary), 1814 (Primary HTS)]; assay type: functional; conditions: Homo sapiens
[18] = target: T7, Long-chain-fatty-acid--AMP ligase FadD28 (Mycobacterium tuberculosis, UniProt P9WQ59); assay: Fluorescence polarization aasay to screen for inhibitors that compete for the binding of FadD28 to a bisubstrate Measured in Biochemical System Using Plate Reader - 2147-01_Inhibitor_Dose_CherryPick_Activity.; assay type: functional, Mycobacterium tuberculosis H37Rv
T7 sequence (P9WQ59 whole entry): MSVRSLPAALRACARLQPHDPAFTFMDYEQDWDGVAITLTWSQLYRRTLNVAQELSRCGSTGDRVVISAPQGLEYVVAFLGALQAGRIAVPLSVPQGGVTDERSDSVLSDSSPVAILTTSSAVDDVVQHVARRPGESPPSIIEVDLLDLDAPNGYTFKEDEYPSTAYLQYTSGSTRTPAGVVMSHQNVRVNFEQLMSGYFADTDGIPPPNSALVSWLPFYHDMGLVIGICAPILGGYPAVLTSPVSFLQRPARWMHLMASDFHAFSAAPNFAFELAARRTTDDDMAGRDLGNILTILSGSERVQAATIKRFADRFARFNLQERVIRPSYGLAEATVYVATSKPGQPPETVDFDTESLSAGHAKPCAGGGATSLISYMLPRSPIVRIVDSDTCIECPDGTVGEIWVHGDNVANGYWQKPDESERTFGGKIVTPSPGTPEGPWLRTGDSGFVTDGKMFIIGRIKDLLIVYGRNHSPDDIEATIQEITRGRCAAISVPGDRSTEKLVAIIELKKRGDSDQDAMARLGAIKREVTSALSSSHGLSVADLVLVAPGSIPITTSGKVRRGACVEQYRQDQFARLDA

[19] = Luminescence Cell-Based Dose Response to Identify Activators of 5'UTR Stem-Loop Driven Prion Protein mRNA Translation in H4-C Neuroglioblastoma Cells. [Related pubchem assays: 1829 (Project Summary), 1814 (Primary HTS)]; assay type: functional
[20] = Luminescence Cell-Based Dose Response HTS to Identify Activators of Luciferase Translation or Activity in H4 […] Cells. [Related pubchem assays: 1829 (Project Summary), 1814 (Primary HTS)]; assay type: functional
[21] = Luminescence Cell-Based Dose Response to Identify Activators of Luciferase Translation or Activity in H4-C Neuroglioblastoma Cells. [Related pubchem assays: 1829 (Project Summary), 1814 (Primary HTS)]; assay type: functional
[22] = Luminescence Cell-Based Dose Confirmation to Identify Activators of 5'UTR Stem-Loop Driven Alpha-Synuclein mRNA Translation in H4 Neuroglioblastoma Cells. [Related pubchem assays: 1829 (Project Summary), 1814 (Primary HTS)]; assay type: functional

Neuropeptide Y receptor type 1, sequence (P25929 whole entry): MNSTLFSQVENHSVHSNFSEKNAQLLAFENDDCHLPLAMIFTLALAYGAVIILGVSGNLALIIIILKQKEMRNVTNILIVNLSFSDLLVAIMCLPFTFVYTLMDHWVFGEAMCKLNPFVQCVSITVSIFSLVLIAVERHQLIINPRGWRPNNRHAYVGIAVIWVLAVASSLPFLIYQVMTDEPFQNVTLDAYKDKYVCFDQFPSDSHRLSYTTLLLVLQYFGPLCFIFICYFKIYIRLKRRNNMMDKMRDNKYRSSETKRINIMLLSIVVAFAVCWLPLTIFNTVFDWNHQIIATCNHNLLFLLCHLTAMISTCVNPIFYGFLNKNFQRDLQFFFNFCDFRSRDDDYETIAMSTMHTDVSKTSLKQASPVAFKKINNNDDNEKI
Photoreceptor-specific nuclear receptor, sequence (Q9Y5X4 whole entry): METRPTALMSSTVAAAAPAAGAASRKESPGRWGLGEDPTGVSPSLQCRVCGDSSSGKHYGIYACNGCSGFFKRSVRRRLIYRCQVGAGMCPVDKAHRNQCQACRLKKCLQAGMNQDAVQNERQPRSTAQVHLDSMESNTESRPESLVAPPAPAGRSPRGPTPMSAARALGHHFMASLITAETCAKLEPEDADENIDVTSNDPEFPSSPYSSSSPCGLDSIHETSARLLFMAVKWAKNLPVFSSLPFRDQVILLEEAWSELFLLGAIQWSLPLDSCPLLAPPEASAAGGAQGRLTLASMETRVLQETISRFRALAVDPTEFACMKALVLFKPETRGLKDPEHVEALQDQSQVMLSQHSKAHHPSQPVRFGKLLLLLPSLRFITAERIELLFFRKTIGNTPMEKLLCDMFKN
Neuropeptide Y receptor type 2, sequence (P49146 whole entry): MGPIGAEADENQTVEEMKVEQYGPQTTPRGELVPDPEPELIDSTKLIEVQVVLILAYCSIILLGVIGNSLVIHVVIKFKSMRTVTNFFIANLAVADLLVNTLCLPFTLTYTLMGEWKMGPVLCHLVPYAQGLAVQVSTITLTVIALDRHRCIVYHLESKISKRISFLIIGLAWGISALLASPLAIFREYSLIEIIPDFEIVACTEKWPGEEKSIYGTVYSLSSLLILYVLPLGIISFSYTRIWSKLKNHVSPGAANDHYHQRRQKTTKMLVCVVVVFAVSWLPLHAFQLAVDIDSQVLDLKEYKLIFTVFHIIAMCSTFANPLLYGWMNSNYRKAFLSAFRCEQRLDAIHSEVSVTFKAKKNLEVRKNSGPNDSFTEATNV
Glyceraldehyde-3-phosphate dehydrogenase, sequence (P04406 whole entry): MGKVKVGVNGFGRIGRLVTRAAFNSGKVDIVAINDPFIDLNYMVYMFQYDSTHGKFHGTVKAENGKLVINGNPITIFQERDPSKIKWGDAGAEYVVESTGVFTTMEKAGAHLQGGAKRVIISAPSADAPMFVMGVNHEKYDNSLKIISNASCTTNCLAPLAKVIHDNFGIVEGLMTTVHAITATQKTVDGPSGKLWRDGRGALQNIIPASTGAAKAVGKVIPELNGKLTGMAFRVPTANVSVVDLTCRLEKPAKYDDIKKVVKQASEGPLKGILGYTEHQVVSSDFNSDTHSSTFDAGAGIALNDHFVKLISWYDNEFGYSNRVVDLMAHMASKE
Peroxisome proliferator-activated receptor gamma/Nuclear receptor corepressor 2, sequence (P37231 whole entry): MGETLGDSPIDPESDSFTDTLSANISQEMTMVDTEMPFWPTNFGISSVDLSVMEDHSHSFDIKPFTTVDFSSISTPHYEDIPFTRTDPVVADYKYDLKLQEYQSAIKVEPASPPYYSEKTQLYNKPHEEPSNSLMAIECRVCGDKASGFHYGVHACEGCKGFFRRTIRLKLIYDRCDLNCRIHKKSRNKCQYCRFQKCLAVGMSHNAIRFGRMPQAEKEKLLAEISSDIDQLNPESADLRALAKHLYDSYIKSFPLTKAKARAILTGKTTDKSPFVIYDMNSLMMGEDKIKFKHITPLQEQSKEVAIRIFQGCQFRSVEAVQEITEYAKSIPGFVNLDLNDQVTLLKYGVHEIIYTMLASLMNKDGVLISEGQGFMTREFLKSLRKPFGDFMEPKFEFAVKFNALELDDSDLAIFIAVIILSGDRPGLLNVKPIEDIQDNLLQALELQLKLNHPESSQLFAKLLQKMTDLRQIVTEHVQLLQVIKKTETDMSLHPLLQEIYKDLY
Peroxisome proliferator-activated receptor gamma/Nuclear receptor corepressor 2, sequence (Q9Y618 whole entry): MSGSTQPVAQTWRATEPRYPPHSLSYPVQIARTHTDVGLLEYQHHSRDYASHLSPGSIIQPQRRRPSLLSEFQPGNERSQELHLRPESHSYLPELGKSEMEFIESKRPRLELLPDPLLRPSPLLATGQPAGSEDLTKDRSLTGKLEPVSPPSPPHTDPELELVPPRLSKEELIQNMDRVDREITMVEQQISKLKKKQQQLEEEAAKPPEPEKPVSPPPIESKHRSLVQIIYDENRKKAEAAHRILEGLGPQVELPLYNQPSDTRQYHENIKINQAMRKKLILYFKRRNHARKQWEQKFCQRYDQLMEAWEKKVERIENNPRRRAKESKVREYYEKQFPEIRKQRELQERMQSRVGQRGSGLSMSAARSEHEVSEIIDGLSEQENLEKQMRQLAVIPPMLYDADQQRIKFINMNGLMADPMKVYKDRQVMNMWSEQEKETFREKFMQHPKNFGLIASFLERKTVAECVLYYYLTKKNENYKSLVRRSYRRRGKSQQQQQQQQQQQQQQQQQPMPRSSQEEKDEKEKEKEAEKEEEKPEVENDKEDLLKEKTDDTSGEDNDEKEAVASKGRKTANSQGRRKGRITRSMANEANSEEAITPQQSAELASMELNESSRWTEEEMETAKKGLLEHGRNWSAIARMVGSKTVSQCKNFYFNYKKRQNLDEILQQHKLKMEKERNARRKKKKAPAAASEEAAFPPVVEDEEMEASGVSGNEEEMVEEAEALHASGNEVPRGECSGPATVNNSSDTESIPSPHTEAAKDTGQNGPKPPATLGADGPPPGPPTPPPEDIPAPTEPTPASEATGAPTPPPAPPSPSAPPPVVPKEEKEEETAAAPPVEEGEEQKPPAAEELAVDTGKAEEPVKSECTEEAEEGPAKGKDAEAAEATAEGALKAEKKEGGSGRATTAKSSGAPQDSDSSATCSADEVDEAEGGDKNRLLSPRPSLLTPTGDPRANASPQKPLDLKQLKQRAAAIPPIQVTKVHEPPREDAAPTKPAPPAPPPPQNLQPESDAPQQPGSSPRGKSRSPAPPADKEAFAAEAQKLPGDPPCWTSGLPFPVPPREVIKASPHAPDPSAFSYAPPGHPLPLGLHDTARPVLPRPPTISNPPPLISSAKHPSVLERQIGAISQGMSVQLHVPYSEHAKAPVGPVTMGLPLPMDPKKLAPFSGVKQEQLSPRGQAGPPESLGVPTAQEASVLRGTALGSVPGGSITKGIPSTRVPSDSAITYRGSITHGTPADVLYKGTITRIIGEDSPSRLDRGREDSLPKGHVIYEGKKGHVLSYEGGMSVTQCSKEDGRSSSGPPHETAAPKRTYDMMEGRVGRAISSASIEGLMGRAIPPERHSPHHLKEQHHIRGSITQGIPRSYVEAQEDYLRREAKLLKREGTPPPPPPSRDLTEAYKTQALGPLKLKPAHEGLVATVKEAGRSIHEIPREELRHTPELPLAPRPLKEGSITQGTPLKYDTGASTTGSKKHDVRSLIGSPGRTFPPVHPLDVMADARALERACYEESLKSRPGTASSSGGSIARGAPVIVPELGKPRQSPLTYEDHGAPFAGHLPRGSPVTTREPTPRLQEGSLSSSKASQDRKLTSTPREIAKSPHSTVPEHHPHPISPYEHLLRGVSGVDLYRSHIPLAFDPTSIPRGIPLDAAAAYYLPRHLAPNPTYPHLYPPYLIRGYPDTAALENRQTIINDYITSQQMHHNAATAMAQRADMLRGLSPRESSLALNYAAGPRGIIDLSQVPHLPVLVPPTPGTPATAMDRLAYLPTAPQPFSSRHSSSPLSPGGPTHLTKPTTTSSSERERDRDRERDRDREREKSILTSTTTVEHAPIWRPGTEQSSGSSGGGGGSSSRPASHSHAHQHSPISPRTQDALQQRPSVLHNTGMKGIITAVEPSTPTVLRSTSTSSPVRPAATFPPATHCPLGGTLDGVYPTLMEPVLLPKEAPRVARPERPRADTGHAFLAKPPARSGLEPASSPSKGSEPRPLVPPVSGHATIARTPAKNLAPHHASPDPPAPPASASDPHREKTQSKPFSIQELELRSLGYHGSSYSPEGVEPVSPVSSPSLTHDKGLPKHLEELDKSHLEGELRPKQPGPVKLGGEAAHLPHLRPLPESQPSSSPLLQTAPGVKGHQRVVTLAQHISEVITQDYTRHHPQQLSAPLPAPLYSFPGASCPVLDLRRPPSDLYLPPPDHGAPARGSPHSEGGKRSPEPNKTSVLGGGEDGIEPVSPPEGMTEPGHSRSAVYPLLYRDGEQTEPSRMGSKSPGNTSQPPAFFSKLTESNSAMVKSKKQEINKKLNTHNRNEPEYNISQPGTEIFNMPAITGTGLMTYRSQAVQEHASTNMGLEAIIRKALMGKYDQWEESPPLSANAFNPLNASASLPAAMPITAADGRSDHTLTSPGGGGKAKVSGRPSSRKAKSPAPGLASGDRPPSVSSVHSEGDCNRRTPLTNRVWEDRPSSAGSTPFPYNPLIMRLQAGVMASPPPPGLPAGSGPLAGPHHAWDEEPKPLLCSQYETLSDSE

CCN1CCN(C2=C(Cl)C(=O)N(c3ccc([N+](=O)[O-])cc3)C2=O)CC1
IC50 [1]: > 100 µM (not active)
IC50 (Bcl-2-related protein A1 [2]): 0.83 µM (active)
IC50 (Bcl-2-related protein A1 [3]): 0.565 µM (active)

CCOc1ccc(NC(=S)NNC(=S)Nc2cccc(C(F)(F)F)c2)cc1
EC50 [4]: > 35.4 µM (not active)
EC50 [5]: 27.3 µM (not active)
EC50 (Streptokinase A): > 150 µM (not active)

Cc1cc2nc(-c3ccc(SCC(=O)Nc4ccc(S(=O)(=O)NC5CC5)cc4)nc3)[nH]c2cc1C
IC50 [6]: > 100 µM (inactive)
IC50 [7]: 2.43 µM (active)
IC50 (Caspase-3 [8]): 21.3 µM (active)
IC50 [9]: > 39.8 µM (not active)
EC50 [10]: 24.7 µM (active)
IC50 [11]: > 99 µM (inactive)
IC50 (Caspase-3 [12]): 14.4 µM (active)
IC50 [13]: > 99 µM (inactive)
IC50 [14]: > 100 µM (inactive)
IC50 [15]: 2.75 µM (active)
IC50 [16]: 4.15 µM (active)
EC50 [17]: 22.7 µM (active)

O=C(O)c1ccc(N/N=C/C(Br)=C/c2ccccc2)cc1
EC50 (H4): 7.2 µM (active)
AC50 [18]: > 100 µM (inactive)
EC50 [19]: 0.316 µM (active)
EC50 [20]: < 0.1 µM (active)
EC50 [21]: 0.368 µM (active)
EC50 [22]: 0.425 µM (active)
